Consider 45 molecules from patent US8278455B2, “5- or 6-substituted benzimidazole derivatives as inhibitors of respiratory syncytial virus replication” (Janssen Pharmaceutica N.V., priority 2003, dated 2012).

By EC50 is commonly meant the concentration at which the effect is half-maximal. Higher therefore signals a need for much substance.

Each structure is given as a SMILES string.

One assay deals with Respiratory Syncytial Virus. Nature of the assay: In vitro screening for activity against Respiratory Syncytial Virus (MTT tetrazolium colorimetric assay, HeLa cells). The assay is classed as cell-based. The note with it: activity category; protection against RSV cytopathology in HeLa cells, 7 days after infection. The source says: The percent protection against cytopathology caused by viruses (antiviral activity or EC50) achieved by tested compounds and their cytotoxicity (CC50) are both calculated from dose-response curves. The selectivity of the antiviral effect is represented by the selectivity index (SI), calculated by dividing the CC50 (cytotoxic dose for 50% of the cells) by the EC50 (antiviral activity for 50% of the cells). The tables in the above experimental part list the category to which each of the prepared compounds belong. Compounds belonging to activity category “A” have an pEC50 (−log of EC50 when expressed in molar units) equal to or more than 7. Compounds belonging to activity category “B” have a pEC50 value between 6 and 7.
Automated tetrazolium-based […] assays were used for determination of EC50 and CC50 of test compounds. Flat-bottom, 96-well plastic microtiter trays were filled with 180 μl of Eagle's Basal Medium, supplemented with 5% FCS (0% for FLU) and 20 mM Hepes buffer. Subsequently, stock solutions (7.8× final test concentration) of compounds were added in 45 μl volumes to a series of triplicate wells so as to allow simultaneous evaluation of their effects on virus- and mock-infected cells. Five five-fold dilutions were made directly in the microtiter trays using a robot system. Untreated virus controls, and HeLa cell controls were included in each test. Approximately 100 TCID50 of Respiratory Syncytial Virus was added to two of the three rows in a volume of 50 μl. The same volume of medium was added to the third row to measure the cytotoxicity of the compounds at the same concentrations as those used to measure the antiviral activity. After two hours of incubation, a suspension (4×10^5 cells/ml) of HeLa cells was added to all wells in a volume of 50 μl. The cultures were incubated at 37° C. in a 5% CO2 atmosphere. Seven days after infection the cytotoxicity and the antiviral activity was examined spectrophotometrically. To each well of the microtiter tray, 25 μl of a solution of MTT (3-(4,5-dimethylthiazol-2-yl)-2,5-diphenyltetrazolium bromide) was added. The trays were further incubated at 37° C. for 2 hours, after which the medium was removed from each cup. Solubilization of the formazan crystals was achieved by adding 100 μl 2-propanol. Complete dissolution of the formazan crystals were obtained after the trays have been placed on a plate shaker for 10 min. Finally, the absorbances were read in an eight-channel computer-controlled photometer (Multiskan MCC, Flow Laboratories) at two wavelengths (540 and 690 nm). The absorbance measured at 690 nm was automatically subtracted from the absorbance at 540 nm, so as to eliminate the effects of non-specific absorption.
Consider `CCOC(=O)c1ccc2nc(NC3CCN(Cc4ccccc4)CC3)n(Cc3nc(C)ccc3O)c2c1` [Compound 142], for which the Activity entry is reported as “C (pEC50 value equal to or below 6)”. Same read-out and setting: the result for `CCOC(=O)c1ccc2nc(NC3CCNCC3)n(Cc3nc(C)ccc3O)c2c1` [Compound 141] reads “C (pEC50 value equal to or below 6)”.

Still in this assay, the particulars now being: human respiratory syncytial virus, 168 h; protection against RSV cytopathology in HeLa cells, 7 days after infection; pEC50 = −log of EC50 in molar units.
`Cc1ccc(O)c(Cn2c(NC3CCN(C)CC3)nc3ccc(CNc4cc(Cl)cc(Cl)c4)cc32)n1` [Compound 2, 2-[6-[(3,5-dichloro-phenylamino)-methyl]-2-(1-methyl-piperidin-4-ylamino)-benzoimidazol-1-ylmethyl]-6-methyl-pyridin-3-ol]: the EC50 was 0.002 µM. Regarding `Cc1cccc(C(=O)Nc2ccc3nc(NC4CCN(C)CC4)n(Cc4nc(C)ccc4O)c3c2)c1` [Compound 65, N-[3-(3-hydroxy-6-methyl-pyridin-2-yl-methyl)-2-(1-methyl-piperidin-4-ylamino)-3H-benzoimidazol-5-yl]-3-methyl-benzamide], the EC50 is 0.0631 µM. Same read-out and setting: the result for `Cc1cccc(C(=O)Nc2ccc3c(c2)nc(NC2CCN(C)CC2)n3Cc2nc(C)ccc2O)c1` [Compound 78, N-[1-(3-hydroxy-6-methyl-pyridin-2-ylmethyl)-2-(1-methyl-piperidin-4-ylamino)-1H-benzoimidazol-5-yl]-3-methyl-benzamide] reads 0.126 µM.

The assay is the same for the next values; noted with them: protection against RSV cytopathology in HeLa cells, 7 days after infection; pEC50 = −log of EC50 in molar units.
In turn, `Cc1ccc(O)c(Cn2c(NC3CCN(C)CC3)nc3cc(CO)ccc32)n1` [Compound 122] registered an Activity of less than 4. `Cc1ccc(O)c(Cn2c(NC3CCN(CCO)CC3)nc3ccc(C=Cc4ccccc4)cc32)n1` [Compound 169] showed an Activity of 6.6. Same read-out and setting: the result for `Cc1ccc(NCc2ccc3nc(NC4CCN(C)CC4)n(Cc4nc(C)ccc4O)c3c2)cc1` [Compound 37] reads 7.7; that for `COc1ccc(NCc2ccc3nc(NC4CCN(C)CC4)n(Cc4nc(C)ccc4O)c3c2)cc1F` [Compound 67], 7.2. On the same count and under the same terms, the result for `Cc1ccc(O)c(Cn2c(NC3CCN(C)CC3)nc3ccc(CNc4ccc(Br)c(F)c4)cc32)n1` [Compound 69] reads 7.2.

`CCc1cc(C#N)ccc1NCc1ccc2nc(NC3CCN(C)CC3)n(Cc3nc(C)ccc3O)c2c1` [Compound 43]: the Activity is recorded as 7.6.

`Cc1ccc(O)c(Cn2c(NC3CCN(C)CC3)nc3ccc(NCc4ccccc4)cc32)n1` [Compound 56] returned an Activity of 7.3. In the case of `Cc1ccc(O)c(Cn2c(NC3CCN(C)CC3)nc3ccc(CNc4ccccc4C(C)C)cc32)n1` [Compound 21], the Activity was 7.9. Still for that read-out and setting: under `Cc1ccc(O)c(Cn2c(NC3CCN(C)CC3)nc3ccc(CNc4c(C)cccc4C(C)C)cc32)n1` [Compound 82] stands 6.9; under `Cc1ccc(O)c(Cn2c(NC3CCN(C)CC3)nc3ccc(C(=O)NCCc4ccccc4)cc32)n1` [Compound 136], less than 4; under `Cc1ccc(O)c(Cn2c(NC3CCN(C)CC3)nc3ccc(CNc4c(C)cc(Br)cc4C)cc32)n1` [Compound 87], 6.8. On the same count and under the same terms, under `Cc1ccc(O)c(Cn2c(NC3CCN(C)CC3)nc3ccc(CNCCc4ccccc4)cc32)n1` [Compound 110] stands 5.8.

In turn, `Cc1ccc(O)c(Cn2c(NC3CCN(C)CC3)nc3ccc(CN(C)CCc4ccccc4)cc32)n1` [Compound 105] had an Activity of 6.2.

With `Cc1ccc(O)c(Cn2c(NC3CCN(C)CC3)nc3ccc(CN(CC(=O)O)c4ccccc4)cc32)n1` [Compound 39], the Activity came out at 7.7. In the case of `Cc1ccc(O)c(Cn2c(NC3CCN(C)CC3)nc3ccc(CNc4ccc(Br)cc4)cc32)n1` [Compound 38], the Activity is 7.7. The same measure, in the same setting: under `CCc1cccc(C)c1NCc1ccc2nc(NC3CCN(C)CC3)n(Cc3nc(C)ccc3O)c2c1` [Compound 47] stands 7.5.

`Cc1ccc(O)c(Cn2c(NC3CCN(C)CC3)nc3ccc(CNc4ccc(F)c(F)c4)cc32)n1` [Compound 50] showed an Activity of 7.4. Regarding `Cc1cc(C)cc(NCc2ccc3nc(NCC4COC(C)(C)O4)n(Cc4nc(C)ccc4O)c3c2)c1` (stereo not drawn) [Compound 184], the Activity is reported as less than 4.

Consider `Cc1ccc(O)c(Cn2c(NC3CCN(CCC(N)=O)CC3)nc3cc(C=Cc4ccccc4)ccc32)n1` [Compound 166], for which the Activity is 6.8. The same measure, in the same setting: under `CCc1cccc(CC)c1NCc1ccc2nc(NC3CCN(C)CC3)n(Cc3nc(C)ccc3O)c2c1` [Compound 52] stands 7.4; under `Cc1cc(C)cc(NCc2ccc3c(c2)nc(NCC(O)CO)n3Cc2nc(C)ccc2O)c1` (stereo not drawn) [Compound 180], 5.6; under `Cc1cc(C)cc(NCc2ccc3nc(NC4CCN(Cc5ccccc5)CC4)n(Cc4nc(C)ccc4O)c3c2)c1` [Compound 164], 7.2. The same measure, in the same setting: the result for `CC(=O)c1cccc(NCc2ccc3nc(NC4CCN(C)CC4)n(Cc4nc(C)ccc4O)c3c2)c1` [Compound 19] reads 7.9; that for `Cc1ccc(O)c(Cn2c(NC3CCN(C)CC3)nc3ccc(NC(=O)c4cccnc4)cc32)n1` [Compound 114], 5.2; that for `Cc1ccc(O)c(Cn2c(NC3CCN(C)CC3)nc3ccc(CNc4ccc5c(c4)CCC5)cc32)n1` [Compound 45], 7.5. In the case of `Cc1cccc(/C=C/c2ccc3c(c2)nc(NC2CCN(C)CC2)n3Cc2nc(C)ccc2O)c1` [Compound 104], the Activity is given as 6.2.

Molecule `CC(=O)Nc1cccc(NCc2ccc3nc(NC4CCN(C)CC4)n(Cc4nc(C)ccc4O)c3c2)c1` [Compound 49] had an Activity of 7.4.

In turn, `Cc1ccc(NCc2ccc3nc(NC4CCN(C)CC4)n(Cc4nc(C)ccc4O)c3c2)c(Cl)c1` [Compound 73] gave an Activity of 7.1.

For `Cc1ccc(O)c(Cn2c(NC3CCN(C)CC3)nc3ccc(CN(Cc4cnc[nH]4)c4ccc(Cl)cc4)cc32)n1` [Compound 27], the Activity is 7.9. Still for that read-out and setting: the result for `Cc1ccc(O)c(Cn2c(NC3CCN(C)CC3)nc3ccc(Cn4ccnc4)cc32)n1` [Compound 79] reads 6.9. Regarding `Cc1ccc(O)c(Cn2c(NC3CCN(C)CC3)nc3ccc(C(O)c4ccccc4)cc32)n1` (stereo not drawn) [Compound 86], the Activity was 6.8. The same measure, in the same setting: under `Cc1ccc(O)c(Cn2c(NC3CCN(CCO)CC3)nc3ccc(CNc4cccc(O)c4)cc32)n1` [Compound 159] stands 7.9. The same measure, in the same setting: under `C#Cc1cccc(NCc2ccc3nc(NC4CCN(C)CC4)n(Cc4nc(C)ccc4O)c3c2)c1` [Compound 13] stands 8.1; under `Cc1ccc(O)c(Cn2c(NC3CCN(C)CC3)nc3ccc(CNc4ccc(Br)c(C)c4)cc32)n1` [Compound 68], 7.2; under `Cc1ccc(O)c(Cn2c(NC3CCN(C)CC3)nc3ccc(CNc4ccccc4Br)cc32)n1` [Compound 22], 7.9. As to `Cc1ccc(O)c(Cn2c(NC3CCN(C)CC3)nc3ccc(CNc4cccc5cccnc45)cc32)n1` [Compound 31], the Activity was found to be 7.8.

Consider `CCOC(=O)c1ccc(NCc2ccc3nc(NC4CCN(C)CC4)n(Cc4nc(C)ccc4O)c3c2)c(O)c1` [Compound 24], for which the Activity was 7.9. Still for that read-out and setting: the result for `CC(=O)c1ccc(NCc2ccc3nc(NC4CCN(C)CC4)n(Cc4nc(C)ccc4O)c3c2)cc1` [Compound 17] reads 8; that for `Cc1ccc(O)c(Cn2c(NC3CCN(C)CC3)nc3cc(/C=C/C#N)ccc32)n1` [Compound 115], 5.1; that for `Cc1cc(C)cc(NCc2cc(C)c3nc(NC4CCN(CCO)CC4)n(Cc4nc(C)ccc4O)c3c2)c1` [Compound 172], 8.5.
